# According to patent publication US20130149249A1, “IMAGING TUBERCULOSIS WITH PYRAZINAMIDE CONTRAST AGENTS” (GE HEALTHCARE LIMITED, priority 2010, published 2013):
# How the values were obtained:
# [1] = test system: Mycobacterium tuberculosis H37Rv (ATCC 27294); test: Microplate Alamar Blue Assay (MABA); format: cell-based; conditions: M. tuberculosis H37Rv, BACTEC 12B medium, pH 6.8, concentration effecting 90% reduction in fluorescence relative to controls
# Description: A series of in vitro tests were carried out to determine the properties of known compounds alongside a rhenium derivative of an in vivo imaging agent of the present invention. These tests were the Microplate Alamar Blue Assay (MABA) (Franzblau S et al., J Clin Microbiol 1998, 36, 362-366), the Low Oxygen Recovery Assay (LORA) (Cho et al., Antimicro Agents Chemother 2007, 51, 1380-1385), and the VERO cell cytotoxicity assay to determine IC 50 (Cory A H et al., Cancer Commun 1991, 3, 207-12).
# The initial screen was conducted against Mycobacterium tuberculosis H37Rv (ATCC 27294) in BACTEC 12B medium using the Microplate Alamar Blue Assay (MABA). Compounds were tested in ten 2-fold dilutions, typically from 100 μg/mL to 0.19 μg/mL at pH 6.8. The MIC90 is defined as the concentration effecting a reduction in fluorescence of 90% relative to controls. This value was determined from the dose-response curve using a curve-fitting program.
# VERO cell = VERO cell cytotoxicity assay; format: cell-based; conditions: Chlorocebus sabaeus, 72 hours exposure, Cell Titer Glo viability
SMILES,MIC [1] [µg/mL],IC50 (VERO cell) [µg/mL]
COc1ccc(CSCCNCCN(CCCN)CCSCc2ccc(OC)cc2)cc1 [Chelate alone],1.49,> 50
"NC(=O)c1cnccn1 [Standard drug, Pyrazinamide]",> 100,–
COc1ccc(CSCCNCCN(CCCNC(=O)c2cnccn2)CCSCc2ccc(OC)cc2)cc1 [PZA + Chelate],10.4,36.8
